Usually Ki stands for a dissociation constant, usually derived from enzyme kinetics or from competition with a known ligand. As usually defined, the IC90 is the concentration needed for an effect of 90%. As usually defined, the melting point is the temperature of the solid-liquid transition.

Converted amounts (≈) assume the structure as drawn.

We go through 21 compounds from patent USRE37781E1, “Substituted cyclic carbonyls and derivatives thereof useful as retroviral protease inhibitors” (DuPont Pharmaceuticals Company, priority 1991, dated 2002).

For one data set, the target named is T1, HIV protease (Human immunodeficiency virus type 1 group M subtype B, UniProt P04585).
T1 construct: plasmid containing HIV protease under the control of an inducible T7 promoter; made in house; host or cells: E. coli (inclusion bodies, T7 promoter)
Briefly: biochemical. Also on record: species or system HIV-1. The note with it: Ki. The method, then:
HIV Protease Inhibition Assay—Spectroscopic Method
Inclusion bodies were solubilized in 8M urea, 50 mM tris pH 8.0. Protease activity was recovered by dilution 20-fold into buffer containing 50 mM sodium acetate pH 5.5, 1 mM EDTA, 10% glycerol and 5% ethylene glycol. Enzyme was used at a final concentration of 1.0-10 ug/ml.
Stock solutions of 10 mM were prepared in DMSO.
All further dilutions were done in DMSO.
Turning to `CCCCCCN1C(=O)N(CCCCCC)C(Cc2ccccc2)C(O)C(O)C1Cc1ccccc1` (centres unmarked) [Example 1Y], the Ki is less than 10 nM.

`N#Cc1cccc(CN2C(=O)N(Cc3cccc(C#N)c3)[C@H](Cc3ccccc3)[C@H](O)C2CCc2ccccc2)c1` (some centres unmarked) [Example 8O] displayed a Ki of 10 to 1000 nM.

`CC(=O)c1cccc(CN2C(=O)N(Cc3cccc(C(C)=O)c3)[C@H](Cc3ccccc3)[C@H](O)[C@H]2CCc2ccccc2)c1` [Example 8P] displayed a Ki of less than 10 nM.

In turn, `O=C1N(Cc2cccc(CO)c2)[C@H](CCc2ccccc2)[C@@H](O)[C@@H](Cc2ccccc2)N1Cc1cccc(CO)c1` [Example 8Z] gave a Ki of less than 10 nM.

Still in this data set, the particulars now being: Ki, Table 1c, cyclic guanidines.
Take `N#CN=C1N(Cc2ccc([N+](=O)[O-])cc2)C(Cc2ccccc2)C(O)C(O)C(Cc2ccccc2)N1Cc1ccc([N+](=O)[O-])cc1` (centres unmarked) [Example 1CB]: the Ki lay within 10 to 1000 nM.

The same data set, now with this note: Table 1a; read-out: Ki.
Turning to `O=C1N(CCN2CCOCC2)C(Cc2ccccc2)C(O)C(O)C(Cc2ccccc2)N1CCN1CCOCC1` (centres unmarked) [Example 1AA], the Ki was greater than 1000 nM.

For the compound `CCCCCCCN1C(=O)N(CCCCCCC)C(Cc2ccccc2)C(O)C(O)C1Cc1ccccc1` (centres unmarked) [Example 1AB], the Ki was 10 to 1000 nM.

Regarding `CCN1C(=O)N(CC)C(Cc2ccccc2)C(O)C(O)C1Cc1ccccc1` (centres unmarked) [Example 1AD], the Ki lay within 10 to 1000 nM.

With `C=C(C)CN1C(=O)N(CC(=C)C)C(Cc2ccccc2)C(O)C(O)C1Cc1ccccc1` (centres unmarked) [Example 1AJ], the Ki is less than 10 nM.

As to `C#CCN1C(=O)N(CC#C)C(Cc2ccccc2)C(O)C(O)C1Cc1ccccc1` (centres unmarked) [Example 1AP], the Ki was 10 to 1000 nM.

The data set is the same for the next values; noted with them: Table 1e; read-out: Ki.
On to `O=C1N[C@H](C(O)Cc2ccccc2)[C@@H](O)[C@@H](Cc2ccccc2)N1Cc1ccccc1` (some centres unmarked) [Example 8Q], for which the Ki was in the range of 10 to 1000 nM.

`O=C1N(Cc2cccc(CO)c2)C(Cc2ccccc2)C(O)C(C(Br)Cc2ccccc2)N1Cc1cccc(CO)c1` (centres unmarked) [Example 8V]: the Ki fell in the range of 10 to 1000 nM.

Consider `O=C1N(Cc2cccc(-c3noc(C(F)(F)F)n3)c2)[C@H](CCc2ccccc2)[C@@H](O)[C@@H](Cc2ccccc2)N1Cc1cccc(-c2noc(C(F)(F)F)n2)c1` [Example 8X], for which the Ki was in the range of 10 to 1000 nM.

The same data set, now with this note: Table 2A; read-out: Ki.
As to `O=C1N(Cc2cc(F)cc(C(F)(F)F)c2)C(Cc2ccccc2)C(O)C(O)C(Cc2ccccc2)N1Cc1cc(F)cc(C(F)(F)F)c1` (centres unmarked) [Example 2M], the Ki lay within 10 to 1000 nM.

The same data set, now with this note: Table 2j; read-out: Ki.
Consider `O=C1NC(Cc2ccccc2)C(O)C2C(Cc3ccccc3)N12` (centres unmarked) [Example 21A], for which the Ki was greater than 1000 nM.

In the case of `CC(=O)OC1C(Cc2ccccc2)N(Cc2ccccc2)C(=O)N2C(Cc3ccccc3)C12` (centres unmarked) [Example 21B], the Ki was greater than 1000 nM.

`O=C1N(Cc2ccccc2)C(Cc2ccccc2)C(O)C2C(Cc3ccccc3)N12` (centres unmarked) [Example 21D]: the Ki was greater than 1000 nM.

In the case of `O=C1N(Cc2cccc(OCc3ccccc3)c2)C(Cc2ccccc2)C(O)C2C(Cc3ccccc3)N12` (centres unmarked) [Example 21E], the Ki was greater than 1000 nM.

As for `N#Cc1cccc(CN2C(=O)N3C(Cc4ccccc4)C3C(O)C2Cc2ccccc2)c1` (centres unmarked) [Example 21F], the Ki was greater than 1000 nM.

With `NC(=O)c1cccc(CN2C(=O)N3C(Cc4ccccc4)C3C(O)C2Cc2ccccc2)c1` (centres unmarked) [Example 21G], the Ki is 10 to 1000 nM.

Consider `NC(=NO)c1cccc(CN2C(=O)N3C(Cc4ccccc4)C3C(O)C2Cc2ccccc2)c1` (centres unmarked) [Example 21H], for which the Ki was 10 to 1000 nM.

The data set is the same for the next values; noted with them: second table headed Table 2A; read-out: Ki.
Consider `O=C1N(Cc2cc(F)cc(C(F)(F)F)c2)C(Cc2ccccc2)C(O)C(O)C(Cc2ccccc2)N1Cc1cc(F)cc(C(F)(F)F)c1` (centres unmarked) [Example 2M], for which the Ki lay within 10 to 1000 nM.

For the next data set, the system named is HIV-1 (RF) in MT-2 cells. Briefly: microbe, parasite or virus in culture. The format is cell-based. Conditions: Human immunodeficiency virus 1, MT2. The gist of the method: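 HIV-1 laboratory strains (RF, MN, IIIB) grown in H9 cells in RPMI 1640 with 5% FCS; infections in MT-2 cells. Viral RNA quantified by hybridization with biotinylated gag/pol capture probes on streptavidin plates and alkaline phosphatase-conjugated reporter probes; BH10 gag-pol in vitro transcripts serve as RNA standards.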
The compound `N#CN=C1N(Cc2ccc([N+](=O)[O-])cc2)C(Cc2ccccc2)C(O)C(O)C(Cc2ccccc2)N1Cc1ccc([N+](=O)[O-])cc1` (centres unmarked) [Example 1CB] came in with an IC90 of 10 to 100 µg/mL (≈ 16.1 to 161 µM).

The data set is the same for the next values; noted with them: Human immunodeficiency virus 1, MT2, Table 1e; read-out: IC90.
In the case of `CC(=O)c1cccc(CN2C(=O)N(Cc3cccc(C(C)=O)c3)[C@H](Cc3ccccc3)[C@H](O)[C@H]2CCc2ccccc2)c1` [Example 8P], the IC90 was less than 10 µg/mL.

In the case of `O=C1N(Cc2cccc(CO)c2)C(Cc2ccccc2)C(O)C(C(Br)Cc2ccccc2)N1Cc1cccc(CO)c1` (centres unmarked) [Example 8V], the IC90 is less than 10 µg/mL.

For `O=C1N(Cc2cccc(-c3noc(C(F)(F)F)n3)c2)[C@H](CCc2ccccc2)[C@@H](O)[C@@H](Cc2ccccc2)N1Cc1cccc(-c2noc(C(F)(F)F)n2)c1` [Example 8X], the IC90 lay within 10 to 100 µg/mL (≈ 13.1 to 131 µM).

`O=C1N(Cc2cccc(CO)c2)[C@H](CCc2ccccc2)[C@@H](O)[C@@H](Cc2ccccc2)N1Cc1cccc(CO)c1` [Example 8Z]: the IC90 was less than 10 µg/mL.

The same data set, now with this note: Table 1e.
Take `N#Cc1cccc(CN2C(=O)N(Cc3cccc(C#N)c3)[C@H](Cc3ccccc3)[C@H](O)C2CCc2ccccc2)c1` (some centres unmarked) [Example 8O]: the IC90 result is recorded as “+++ (+++=<10 μg/mL)”.

`O=C1N[C@H](C(O)Cc2ccccc2)[C@@H](O)[C@@H](Cc2ccccc2)N1Cc1ccccc1` (some centres unmarked) [Example 8Q]: the IC90 result was “++ (++=10 to 100 μg/mL)”.

The same data set, now with this note: Table 2j.
For `O=C1NC(Cc2ccccc2)C(O)C2C(Cc3ccccc3)N12` (centres unmarked) [Example 21A], the IC90 result is given as “++/+ (The ++/+ is used in the cases where an IC90 was determined to be >50 μg/mL)”.

Consider `CC(=O)OC1C(Cc2ccccc2)N(Cc2ccccc2)C(=O)N2C(Cc3ccccc3)C12` (centres unmarked) [Example 21B], for which the IC90 result is “++/+ (The ++/+ is used in the cases where an IC90 was determined to be >50 μg/mL)”.

In the case of `O=C1N(Cc2ccccc2)C(Cc2ccccc2)C(O)C2C(Cc3ccccc3)N12` (centres unmarked) [Example 21D], the IC90 result is “++/+ (The ++/+ is used in the cases where an IC90 was determined to be >50 μg/mL)”.

`O=C1N(Cc2cccc(OCc3ccccc3)c2)C(Cc2ccccc2)C(O)C2C(Cc3ccccc3)N12` (centres unmarked) [Example 21E]: the IC90 result is reported as “++/+ (The ++/+ is used in the cases where an IC90 was determined to be >50 μg/mL)”.

On to `N#Cc1cccc(CN2C(=O)N3C(Cc4ccccc4)C3C(O)C2Cc2ccccc2)c1` (centres unmarked) [Example 21F], for which the IC90 result is on record as “+ (+=>100 μg/mL)”.

Turning to `NC(=O)c1cccc(CN2C(=O)N3C(Cc4ccccc4)C3C(O)C2Cc2ccccc2)c1` (centres unmarked) [Example 21G], the IC90 result is reported as “++ (++=10 to 100 μg/mL)”.

For the compound `NC(=NO)c1cccc(CN2C(=O)N3C(Cc4ccccc4)C3C(O)C2Cc2ccccc2)c1` (centres unmarked) [Example 21H], the IC90 entry was “+++ (+++=<10 μg/mL)”.

Test system in a further data set: not given
Experiment: not given
Conditions: not given
Regarding `O=C1N(CCN2CCOCC2)C(Cc2ccccc2)C(O)C(O)C(Cc2ccccc2)N1CCN1CCOCC1` (centres unmarked) [Example 1AA], the melting point fell in the range of 70 to 75 °C.

In turn, `CCCCCCCN1C(=O)N(CCCCCCC)C(Cc2ccccc2)C(O)C(O)C1Cc1ccccc1` (centres unmarked) [Example 1AB] came in with a melting point of 100 to 101 °C.

For the compound `CCN1C(=O)N(CC)C(Cc2ccccc2)C(O)C(O)C1Cc1ccccc1` (centres unmarked) [Example 1AD], the melting point fell in the range of 214 to 215 °C.

Turning to `C=C(C)CN1C(=O)N(CC(=C)C)C(Cc2ccccc2)C(O)C(O)C1Cc1ccccc1` (centres unmarked) [Example 1AJ], the melting point was in the range of 205 to 207 °C.

`C#CCN1C(=O)N(CC#C)C(Cc2ccccc2)C(O)C(O)C1Cc1ccccc1` (centres unmarked) [Example 1AP] came in with a melting point of 198 to 200 °C.

For the compound `N#CN=C1N(Cc2ccc([N+](=O)[O-])cc2)C(Cc2ccccc2)C(O)C(O)C(Cc2ccccc2)N1Cc1ccc([N+](=O)[O-])cc1` (centres unmarked) [Example 1CB], the melting point was 130.3 °C.

On to `CCCCCCN1C(=O)N(CCCCCC)C(Cc2ccccc2)C(O)C(O)C1Cc1ccccc1` (centres unmarked) [Example 1Y], for which the melting point was 110 to 112 °C.

As to `O=C1N(Cc2cc(F)cc(C(F)(F)F)c2)C(Cc2ccccc2)C(O)C(O)C(Cc2ccccc2)N1Cc1cc(F)cc(C(F)(F)F)c1` (centres unmarked) [Example 2M], the melting point came out at 162.3 °C.
